Test results reported in patent US20250213614A1, “Modified RELA Protein for Inducing Interferon Expression and Engineered Immune Cells with Improved Interferon Expression” (Institut Curie, priority 2022, published 2025).

B1: RELA K5Q: RELA mutant converting five lysine residues (K122, K123, K310, K314, K315) to glutamine, acetylation mimic (protein, UniProt Q04206 1-551, looked up, variant K122Q K123Q K310Q K314Q K315Q)
Transcription factor p65: MDELFPLIFPAEPAQASGPYVEIIEQPKQRGMRFRYKCEGRSAGSIPGERSTDTTKTHPTIKINGYTGPGTVRISLVTKDPPHRPHPHELVGKDCRDGFYEAELCPDRCIHSFQNLGIQCVQQRDLEQAISQRIQTNNNPFQVPIEEQRGDYDLNAVRLCFQVTVRDPSGRPLRLPPVLSHPIFDNRAPNTAELKICRVNRNSGSCLGGDEIFLLCDKVQKEDIEVYFTGPGWEARGSFSQADVHRQVAIVFRTPPYADPSLQAPVRVSMQLRRPSDRELSEPMEFQYLPDTDDRHRIEEKRKRTYETFQSIMQQSPFSGPTDPRPPPRRIAVPSRSSASVPKPAPQPYPFTSSLSTINYDEFPTMVFPSGQISQASALAPAPPQVLPQAPAPAPAPAMVSALAQAPAPVPVLAPGPPQAVAPPAPKPTQAGEGTLSEALLQLQFDDEDLGALLGNSTDPAVFTDLASVDNSEFQQLLNQGIPVAPHTTEPMLMEYPEAITRLVTGAQRPPDPAPAPLGAPGLPNGLLSGDEDFSSIADMDFSALLSQISS

Key:
Format in all cases: cell-based, human
CD4+ T cells [1] = test: IFN-I/III quantification (LEGENDplex) in CD4+ T cells, baseline or after STING stimulation; conditions: for IFNλ1 after cGAMP stimulation: 2D, 2F
Procedure: (§1) Plasmapheresis blood pockets were obtained from healthy adult volunteers after informed consent from the EFS (Establishment of French blood collection). Peripheral blood mononuclear cells (PBMCs) were isolated using Ficoll-Paque Plus (GE-17144003) and left overnight at 4° C. in RPMI (Thermo fischer #61870-010) with 10% heat-decomplemented fetal bovine serum (FBS, Eurobio #CVFSVFO0-01). CD14+ cells were enriched by positive selection (Miltenyi #130-050-201), the CD14 negative fraction was subsequently used to isolate total CD4+ T cells by negative selection (Stem Cell #17952). CD14+ cells were cultured in RPMI containing 10% FBS, 5% Penicillin-Streptomycin (PS, Thermo Fisher #10378-016), 50 μg/ml Gentamicin (Thermo Fisher #15750-045) and 10 mM HEPES (Thermo Fisher #15630-056). CD14+ cells were differentiated ex vivo into MDDC by supplementing the culture media with 50 ng/ml IL-4 (Miltenyi #130-093-922) and 10 ng/ml GM-CSF (Miltenyi #130-093-867). MDDC were used for experiments 3 or 4 days following the start of the culture. CD14+ cells were differentiated ex vivo into macrophages by adding 50 ng/ml MCSF (Miltenyi #130-096-492) to the culture media containing RPMI with 1% PS, 5% FBS and 5% human serum (Sigma #H4522). MDM were used 7 days following culture. Freshly isolated CD4+ T cells were cultured in X-VIVO 15 (Lonza #BE02-060F) and activated using anti-CD3 and anti-CD28 Dynabeads (fisher scientific #10548353) at the ratio of 1:5 (bead:cell). 100 U/ml human IL-2 (Immunotools #11340027) was added to cultures 2 days following TCR stimulation and media with IL-2 was replenished every 48 hours. To assess proliferation, freshly isolated CD4+ T cells were stained with cell proliferation dye (thermo fischer #65-0840-85) prior to TCR stimulation.
(§2) CD14+ cells were plated at 1 million cells/ml and transduced with equal volumes of freshly harvested SIV-VLPs and pTRIP-SFFV vectors in the presence of 8 μg/ml protamine (Sigma #P4020). CD4+ T cells were transduced with lentivectors 24 hours post-TCR stimulation in 100 μl of cells (0.2 million cells) and 100 μl of freshly harvested lentivirus in the presence of 8 μg/ml protamine. T cells were spinoculated at 1200 g for 2 hours at 25° C. 0.5 million THP-1 cells in 500 μl media (RPMI 10% FBS 1% PS) were transduced with 500 μl freshly harvested lentivirus in the presence of 8 μg/ml protamine. 1 μg/ml Puromycin (Invivogen #ant-pr-1) was added 2 days post-transduction when cells were transduced with pLKO.1-puro plasmid.
For stimulation of STING by extracellular ligands, 2.5 μg of ADUS100 (invivogen #tlrl-nacda2r-01) or 2′3′-cGAMP (cGAMP, invivogen #tlrl-nacga23-02) was added to 100,000 cells in 100 μl media either on freshly isolated primary cells or 3-4 days post differentiation for MDDC and 3 days post-TCR stimulation for CD4+ T cells. Cells and supernatant were harvested 18-24 hours post stimulation. For delivery of STING ligands after permeabilization, T cells were used 3 or 4 days post TCR stimulation and MDDC were used 3-4 days following differentiation. 150,000 cells were plated in round bottom 96-well plate. Media was removed by centrifugation and 20 μl 2× permeabilization buffer (100 mM HEPES, 200 mM KCl, 6 mM MgCl2, 0.2 mM DTT, 170 mM Sucrose, 2 mM ATP, 2 mM GTP, 0.4% bovine serum albumin (BSA), 20 μg/ml digitonin) and 20 μl cGAMP (12 μg/ml) was added to cells. 18 to 20 hours following stimulation supernatants and cells were harvested. Cells were stained with a fixable viability dye (Invitrogen #65-0865-14) and acquired on a FACSVerse (BD). […]
Where indicated, cells were treated with 5-Azacytidine (5AZA, Sigma #A2385) 48 hours prior to cGAMP stimulation. Fresh 5AZA was added daily to cells, and media was replenished with 5AZA following cGAMP stimulation. 100 nM Trichostatin A (TSA) (sigma #T1952) was added to cells following cGAMP stimulation and left overnight. […]

[2] = test system: STING, TBK1, IRF3, RELA, IRF7; test: Western blot of key signaling proteins involved in STING signaling; conditions: for endogenous RELA expression: overexpression in CD4+ T cells and MDDC, FIG. 2C
Procedure: 0.5 million cells were lysed for 30 minutes on ice in 50 μl RIPA buffer (50 mM Tris HCl, 150 mM NaCl, 0.1% SDS, 0.5% DOC, 1% NP-40) with Protease inhibitor (Roche #1187358001). To evaluate, phospho-proteins 50 mM NaF and 1 mM sodium orthovanadate were added to the lysis buffer. Protein lysates were cleared by centrifugation at 12,000 g for 10 to 12 minutes at 4° C. 10 μl of 6× Laemmli buffer (fisher scientific #J61337) was added to 50 μl protein lysates and samples were boiled at 95° C. for 15 minutes. Protein samples were resolved on 4%-20% Biorad precast SDS-PAGE gels (#5671125) and transferred onto PVDF membranes (BioRad #1704157). Membranes were blocked in 5% non-fat dry milk in PBS 0.1% tween or in TBS 5% BSA 0.1% Tween to detect phosphorylated proteins. Primary antibodies were used at 1:1000:phospho-STING (clone-D7C3S), STING (clone-D2P2F), serine 172 phospho-TBK1 (clone-D52C2), TBK1 (clone-D11B4), serine 396 phospho IRF3 (clone-D6O1M), IRF3 (clone-D83B9), RELA (clone-C22B4), IRF7 (clone-12G9A36), cGAS (clone-D1 D3G), Actin (clone-C4), Sendai viral proteins (Biozol #MBL-PD029). Secondary anti-rabbit or anti-mouse antibody were used at 1:10,000 (santa cruz #sc-2357, #sc-516102). ECL signal (Biorad #1705061 and #1705062) was recorded on a ChemiDoc Touch Biorad Imager. Data was analyzed and quantified with Image Lab software (Biorad). In figures, dotted lines indicate reordering of lanes from a single original membrane for visualization purpose.

CD4+ T cells [3] = test: Bulk RNAseq of activated CD4+ T cells after cGAMP; conditions: five hours after cGAMP 6 μg/ml
Procedure: Five hours following cGAMP (6 μg/ml) stimulation of activated CD4+ T cells, total RNA was extracted (Macherey-Nagel #740955.50). […] RNA sequencing libraries were prepared from 500 ng of total RNA using the Illumina TruSeq Stranded mRNA Library preparation kit. A first step of polyA selection using magnetic beads was performed to focus sequencing on polyadenylated transcripts. After fragmentation, cDNA synthesis was performed and resulting fragments were used for dA-tailing and ligated to the TruSeq indexed adapters. PCR amplification was performed to create the final cDNA library (with 13 cycles). After quantification of PCR products, sequencing was carried out using 2*100 cycles (paired-end reads, 100 nucleotides) on a Novaseq6000 instrument, targeting 25M clusters. The data was aligned to the hg19 (ENSEMBL annotation: v.74) genome using the RNA-seq pipeline of the Curie bioinformatics platform, rnaseq v3.1.1. Reads were trimmed with TrimGalore (v.0.6.2) and aligned on the reference genome using STAR (v 2.6.1) ^71. Quality control was done with picard (v.2.18.15), RSeQC (v.2.6.4) and preseq (v.2.0.3)^72. Read counts were generated with STAR. Quality reports were generated with MultiQC (v.1.7). […]

MDDC = test: IFN-I/III quantification (LEGENDplex) in MDDC after STING stimulation; conditions: lentivector overexpression in MDDC, cGAMP 6 μg/ml; for IFN-I/III response to cGAMP compared to the control condition: FIG. 2D
Procedure: as §1, §2
For stimulation of STING by extracellular ligands, 2.5 μg of ADUS100 (invivogen #tlrl-nacda2r-01) or 2′3′-cGAMP (cGAMP, invivogen #tlrl-nacga23-02) was added to 100,000 cells in 100 μl media either on freshly isolated primary cells or 3-4 days post differentiation for MDDC and 3 days post-TCR stimulation for CD4+ T cells. Cells and supernatant were harvested 18-24 hours post stimulation. For delivery of STING ligands after permeabilization, T cells were used 3 or 4 days post TCR stimulation and MDDC were used 3-4 days following differentiation. 150,000 cells were plated in round bottom 96-well plate. Media was removed by centrifugation and 20 μl 2× permeabilization buffer (100 mM HEPES, 200 mM KCl, 6 mM MgCl2, 0.2 mM DTT, 170 mM Sucrose, 2 mM ATP, 2 mM GTP, 0.4% bovine serum albumin (BSA), 20 μg/ml digitonin) and 20 μl cGAMP (12 μg/ml) was added to cells. 18 to 20 hours following stimulation supernatants and cells were harvested. Cells were stained with a fixable viability dye (Invitrogen #65-0865-14) and acquired on a FACSVerse (BD).
For experiments with conditioned media, CD4+ T cell- and MDDC-conditioned media refer to […] filtered conditioned media from cultures of activated CD4+ T cell and MDDC, respectively. CD4+ T cells were pretreated with 100 μl of MDDC-conditioned media or of fresh MDDC culture media, 24 hours prior to cGAMP stimulation. […]

[4] = lentivector overexpression in CD4+ T cells, FIG. 2B

| Molecule | IFNβ protein (CD4+ T cells [1]; cGAMP delivered by digitonin-mediated membrane permeabilization, FIG. 1F) | IFN response to STING ligands (CD4+ T cells [1]; resting blood CD4+ T cells, soluble ligand 1 μg or 2.5 μg, FIG. 1B) | phosphorylated levels of STING, TBK1 and IRF3, CD4+ T cells versus MDDC ([2]; 6 hours after cGAMP 6 μg/ml, FIG. 1G) | IRF7 expression (RNAseq) (CD4+ T cells [3]) | IFNλ1 after cGAMP stimulation (CD4+ T cells [1]; [4]) | IFN-I/III response to cGAMP, RNA and protein levels (CD4+ T cells [1]; lentivector overexpression in CD4+ T cells, cGAMP 6 μg/ml, FIG. 2B) | IFN-I/III response to cGAMP, RNA and protein levels (MDDC; FIG. 2B) | IFN-I/III response to cGAMP compared to the control condition (MDDC) | endogenous RELA expression [2] |
| --- | --- | --- | --- | --- | --- | --- | --- | --- | --- |
| Nc1nc2c(ncn2[C@@H]2O[C@@H]3COP(=O)(O)O[C@H]4[C@@H](O)[C@H](n5cnc6c(N)ncnc65)O[C@@H]4COP(=O)(O)O[C@@H]2[C@@H]3O)c(=O)[nH]1 [cGAMP, 2′3′-cGAMP, reference compound] | undetectable | undetectable | identical | induced | – | – | – | – | – |
| RELA: wild type human RELA protein (transcription factor p65, Uniprot Q04206), overexpressed from lentivector [reference compound] | – | – | – | – | tendency for increased IFNλ1 | did not significantly enhance | did not significantly enhance | remained unchanged | no impact |
| B1 | – | – | – | – | abrogated | – | – | remained unchanged | no impact |
